Experimental data: patent EP0755932A1, “(Thiophen-2-yl)piperidin or tetrahydropyridin-azabicyclocarboxamides” (AMERICAN HOME PRODUCTS CORPORATION, priority 1995, dated 1997)
pIC50: −log10 of the molar value.

Biological target: T1, 5-HT1A serotonin receptor (Rattus norvegicus, UniProt P19327)
T1 construct: from tissue; host or cells: rat brain membranes (inferred from the cited Hall et al. procedure)
T1 sequence (P19327 1-422): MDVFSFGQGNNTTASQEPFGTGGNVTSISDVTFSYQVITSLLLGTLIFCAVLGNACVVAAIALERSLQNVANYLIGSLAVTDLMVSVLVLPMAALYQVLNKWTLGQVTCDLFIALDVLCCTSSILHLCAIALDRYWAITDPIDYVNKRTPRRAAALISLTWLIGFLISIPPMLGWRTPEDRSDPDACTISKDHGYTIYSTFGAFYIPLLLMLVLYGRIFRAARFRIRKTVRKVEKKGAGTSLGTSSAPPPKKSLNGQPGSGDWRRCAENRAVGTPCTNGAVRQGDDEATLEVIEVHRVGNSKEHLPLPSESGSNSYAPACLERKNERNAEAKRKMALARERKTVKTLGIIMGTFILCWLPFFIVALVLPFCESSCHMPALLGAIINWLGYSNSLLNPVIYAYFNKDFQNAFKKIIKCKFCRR
Assay: Displacement of [3H] 8-OHDPAT from the 5-HT1A serotonin receptor (procedure of Hall et al.)
Format: binding
Text: 8-OHDPAT (dipropylaminotetralin) from the 5-HT1A serotonin receptor following the procedure of Hall et al., J. Neurochem. 44, 1685 (1985).

Row | Structure (SMILES) | pIC50
1 | COc1ccsc1C1(O)CCN(CC[C@@H](C(=O)N2C3CCCC2CC3)c2ccccc2)CC1 [Example 1, (R)-1-(8-Aza-bicyclo[3.2.1.]oct-8-yl)-4-[4-hvdroxy-4-(3-methoxythiophen-2-yl)-piperidin-1-yl]-2-phenylbutan-1-one] | 6.03
2 | COc1ccsc1C1=CCN(CC[C@@H](C(=O)N2C3CCCC2CC3)c2ccccc2)CC1 [Example 2, (R)-1-(8-Aza-bicyclo[3.2.1.]oct-8-yl)4-[4-(3-methoxythiophen-2-yl)-1,2,3,6-tetrahydropyridin-1-yl]-2-phenylbutan-1-one] | 9.05
